This note sets out measurements from patent publication US20210238170A1, “5,5-Difluoro- and 5-Fluoro-5-Methyl-C-Glycoside Derivatives Useful As Dual SGLT1 / SGLT2 Modulators” (Janssen Pharmaceutica NV, priority 2018, published 2021).

The target of assay [1] is T1, human SGLT1 (Homo sapiens, UniProt P13866).
T1 construct: expressed in transfected cells
T1 sequence (P13866 1-664): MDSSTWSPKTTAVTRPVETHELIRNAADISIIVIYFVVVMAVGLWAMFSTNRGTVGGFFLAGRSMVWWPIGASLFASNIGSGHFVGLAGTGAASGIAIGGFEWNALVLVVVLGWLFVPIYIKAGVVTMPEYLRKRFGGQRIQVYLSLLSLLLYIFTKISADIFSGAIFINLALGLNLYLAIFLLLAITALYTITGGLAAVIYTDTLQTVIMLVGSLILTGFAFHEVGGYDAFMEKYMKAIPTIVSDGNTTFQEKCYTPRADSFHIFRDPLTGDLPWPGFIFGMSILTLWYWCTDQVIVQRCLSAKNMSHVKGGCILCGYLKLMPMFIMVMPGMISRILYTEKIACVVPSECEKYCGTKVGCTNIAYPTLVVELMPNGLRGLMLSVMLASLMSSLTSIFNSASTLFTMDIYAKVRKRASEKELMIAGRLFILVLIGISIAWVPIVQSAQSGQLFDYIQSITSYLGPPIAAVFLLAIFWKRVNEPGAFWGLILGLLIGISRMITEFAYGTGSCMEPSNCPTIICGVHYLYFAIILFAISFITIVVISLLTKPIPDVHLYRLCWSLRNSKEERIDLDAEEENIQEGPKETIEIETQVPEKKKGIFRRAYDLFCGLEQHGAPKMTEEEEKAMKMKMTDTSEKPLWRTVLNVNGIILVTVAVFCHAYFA
Description: SGLT1 in vitro assay: Na-dependent 14C-AMG uptake in CHO-K1 cells stably expressing human SGLT1. In kind it is cell-based. The conditions noted are these: CHO-K1 cells stably expressing human SGLT1, 14C-AMG uptake; for inhibition at 0.3 µM: read-out: SGLT1 % Inh @ 0.3 μM; for pIC50: compounds of formula (I) where R0 is fluoro. How it is done:
(§1) Biological Example 1: SGLT1 and SGLT2 In Vitro Assays
(§2) The ability of the compounds of formula (I) of the present invention to treat an SGLT-mediated condition was determined using the following procedures:
(§3) SGLT1 and SGLT2 were cloned in form of cDNA from human small intestine (Genbank M24847), and from human kidney (Genbank M95549), respectively. Subsequently, each full cDNA was subcloned into pcDNA with each construct's integrity verified through follow-on sequencing. To generate CHO-K1 cells that stably express human SGLT1 or human SGLT2, CHO-K1 cells were transfected using DMRIE-C reagent (Life Technologies, Gaithersburg, Md.). Transfected cells were then selected in the presence of 500 μg/ml of the Geneticin (G418 Cellgro Catalog No. 30234-CI)
(§4) Individual clones were then characterized using the following cell-based assay for sodium-dependent glucose transport:
(§5) Inhibition of SGLT1 and SGLT2 activity was assessed in CHO K1 cells stably expressing either human SGLT1 or SGLT2, using the SGLT specific glucose analog methyl-glucopyranoside (Sigma Catalog No. M-9376). Cells were plated (45,000 cells/well) in white wall 96-well plates (COSTAR, Cat #3903) for 24 hours in growth medium, then a final concentration of 10 mM Na-Butyrate (ALDRICH Cat #30341-0) was added. The cells were incubated for 24 hours. On the day of the assay, cells were rinsed and treated with test compounds (at concentrations of 0.001 μM to 10 μM) in assay buffer (50 mM HEPES, 20 mM Tris base, 5 mM KCl, 1 mM MgCl2, 1 mM CaCl2 and 137 mM NaCl, pH 7.4) for 10 minutes. Cells were then incubated with ^14C-a-methyl-d-glucopyranoside (AMG, Amersham Catalog No. CFB 76), using 0.07 μCi per well in 500 µM AMG final concentration. The cells were incubated for 2 hours at 37° C. with 5% CO2 and washed two times with ice-cold Phosphate Buffer Solution (CELLGRO Catalog No. 21030-CV). The cells were then solubilized by adding 60 μl of MICROSCINT™ 20 and the Na-dependent ^14C-AMG uptake was quantified by measuring radioactivity. Plates were counted in a TopCount (Packard, Meriden, Conn.)
(§6) Representative compounds of the present invention were tested according to the procedures as described in Biological Example 1 and 2 above, with results as listed in Table 5, below. Results are reported as the %-inhibition or IC50 value. Variability for the functional assay was typically within 20%.

Assay [2] concerns the target T2, human SGLT2 (Homo sapiens, UniProt P31639).
T2 construct: expressed in transfected cells
T2 sequence (P31639 1-672): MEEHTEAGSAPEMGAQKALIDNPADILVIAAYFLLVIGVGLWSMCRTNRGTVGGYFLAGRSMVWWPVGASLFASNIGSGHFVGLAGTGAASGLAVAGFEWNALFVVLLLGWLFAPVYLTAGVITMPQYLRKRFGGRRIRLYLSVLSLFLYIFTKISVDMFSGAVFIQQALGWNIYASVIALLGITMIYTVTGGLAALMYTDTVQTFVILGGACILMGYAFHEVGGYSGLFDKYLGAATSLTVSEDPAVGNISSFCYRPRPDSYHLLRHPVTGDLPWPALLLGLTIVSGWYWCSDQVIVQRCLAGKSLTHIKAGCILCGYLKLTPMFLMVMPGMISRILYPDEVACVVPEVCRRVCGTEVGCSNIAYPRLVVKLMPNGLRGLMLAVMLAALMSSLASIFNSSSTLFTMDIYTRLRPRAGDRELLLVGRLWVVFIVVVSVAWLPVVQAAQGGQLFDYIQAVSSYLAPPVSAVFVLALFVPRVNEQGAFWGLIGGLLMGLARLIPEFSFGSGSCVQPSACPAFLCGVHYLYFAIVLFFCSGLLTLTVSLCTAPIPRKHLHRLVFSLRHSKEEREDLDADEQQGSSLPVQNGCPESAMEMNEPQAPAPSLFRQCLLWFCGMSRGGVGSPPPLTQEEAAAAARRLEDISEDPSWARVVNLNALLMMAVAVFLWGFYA
In words: SGLT2 in vitro assay: Na-dependent 14C-AMG uptake in CHO-K1 cells stably expressing human SGLT2. In kind it is cell-based. The following applies: CHO-K1 cells stably expressing human SGLT2, 14C-AMG uptake; for pIC50: compounds of formula (I) where R0 is fluoro; for inhibition at 0.3 µM: read-out: SGLT2 % Inh @ 0.3 μM. How it is done:
as §1, §2, §3, §4, §5, §6

Each structure is given as a SMILES string. pIC50: −log10 of the molar value.

Regarding `OC[C@H]1O[C@@H](c2cc(Cc3cc4ccccc4s3)c(Cl)cc2O)[C@H](O)[C@@H](O)C1(F)F` [Compound 27, (2S,3R,4R,6R)-2-[5-(benzothiophen-2-ylmethyl)-4-chloro-2-hydroxy-phenyl]-5,5-difluoro-6-(hydroxymethyl)tetrahydropyran-3,4-diol], the inhibition at 0.3 µM in assay [1] is 71.3%. Besides, the pIC50 (in general, −log10 of the IC50, conventionally taken in molar units) in assay [1] is 7.03; in assay [2] it was 8.38.

`COc1cc(O)c([C@@H]2O[C@H](CO)C(F)(F)[C@H](O)[C@H]2O)cc1Cc1cc2ccccc2s1` [Compound 31, (2S,3R,4R,6R)-2-[5-(benzothiophen-2-ylmethyl)-2-hydroxy-4-methoxy-phenyl]-5,5-difluoro-6-(hydroxymethyl)tetrahydropyran-3,4-diol]: the pIC50 is 6.78 in assay [1] and 7.62 in assay [2].

As for `COc1cc(C)c(Cc2cc3ccccc3s2)cc1[C@@H]1O[C@H](CO)C(F)(F)[C@H](O)[C@H]1O` [Compound 35, (2S,3R,4R,6R)-2-[5-(benzothiophen-2-ylmethyl)-2-methoxy-4-methyl-phenyl]-5,5-difluoro-6-(hydroxymethyl)tetrahydropyran-3,4-diol], the inhibition at 0.3 µM in assay [1] was 39.2%; in assay [2] it was 76.3%.

Regarding `COc1cc(Cl)c(Cc2cc3ccccc3s2)cc1[C@@H]1O[C@H](CO)C(F)(F)[C@H](O)[C@H]1O` [Compound 36, (2S,3R,4R,6R)-2-[5-(benzothiophen-2-ylmethyl)-4-chloro-2-methoxy-phenyl]-5,5-difluoro-6-(hydroxymethyl)tetrahydropyran-3,4-diol], in assay [1], the inhibition at 0.3 µM worked out at 56.6% and the negative logarithm of the IC50 (pIC50) was 6.66. In assay [2], the inhibition at 0.3 µM amounted to 48.6% and the pIC50 is 8.37.

Turning to `CCc1ccc(Cc2cc([C@@H]3O[C@H](CO)C(F)(F)[C@H](O)[C@H]3O)c(OC)c3c2OCC3)cc1` [Compound 38], the “SGLT1 % Inh @ 0.3 μM” value in assay [1] was 47.4%. For the same molecule, in assay [2], the “SGLT2 % Inh @ 0.3 μM” value came to 65.9%.

In the case of `COCCOc1cc(C)c(Cc2cc3ccccc3s2)cc1[C@@H]1O[C@H](CO)C(F)(F)[C@H](O)[C@H]1O` [Compound 39], the “SGLT1 % Inh @ 0.3 μM” value in assay [1] is recorded as 31.8%. Besides, in assay [2], the “SGLT2 % Inh @ 0.3 μM” value was 76.4%.

With `Cc1cc(OCC#N)c([C@@H]2O[C@H](CO)C(F)(F)[C@H](O)[C@H]2O)cc1Cc1cc2ccccc2s1` [Compound 40, 2-[4-(benzothiophen-2-ylmethyl)-2-[(2S,3R,4R,6R)-5,5-difluoro-3,4-dihydroxy-6-(hydroxymethyl)tetrahydropyran-2-yl]-5-methyl-phenoxy]acetonitrile], in assay [1], the inhibition at 0.3 µM is 54% and the pIC50 was 6.75. For the same molecule, in assay [2], the inhibition at 0.3 µM came out at 85.4% and the pIC50 was 8.46.

Turning to `CCOc1cc(C)c(Cc2cc3ccccc3s2)cc1[C@@H]1O[C@H](CO)C(F)(F)[C@H](O)[C@H]1O` [Compound 41], the “SGLT1 % Inh @ 0.3 μM” value in assay [1] came to 5.8%. For the same molecule, in assay [2], the “SGLT2 % Inh @ 0.3 μM” value is on record as 85.4%.

For the molecule `Cc1cc(OC(C)C)c([C@@H]2O[C@H](CO)C(F)(F)[C@H](O)[C@H]2O)cc1Cc1cc2ccccc2s1` [Compound 42], the “SGLT1 % Inh @ 0.3 μM” value in assay [1] stood at 8.9%. Moreover, the “SGLT2 % Inh @ 0.3 μM” value in assay [2] was 74.3%.

As for `OC[C@H]1O[C@@H](c2cc(Cc3ccc4c(c3)OCCO4)c(Cl)cc2O)[C@H](O)[C@@H](O)C1(F)F` [Compound 45, (2S,3R,4R,6R)-2-[4-chloro-5-(2,3-dihydro-1,4-benzodioxin-6-ylmethyl)-2-hydroxy-phenyl]-5,5-difluoro-6-(hydroxymethyl)tetrahydropyran-3,4-diol], the inhibition at 0.3 µM came to 81.7% in assay [1] and 82% in assay [2]. In addition, the figures for the negative logarithm of the IC50 (pIC50) in assay [1] and in assay [2] were 7.31 and 8.85, respectively.

Regarding `OC[C@H]1O[C@@H](c2cc(Cc3ccc([C@@H]4CCOC4)cc3)c(Cl)cc2O)[C@H](O)[C@@H](O)C1(F)F` [Compound 46], in assay [1], the “SGLT1 % Inh @ 0.3 μM” value came out at 18.4%. For the same molecule, the “SGLT2 % Inh @ 0.3 μM” value in assay [2] is listed as 89.0%.

In the case of `CCOc1ccc(Cc2cc([C@@H]3O[C@H](CO)C(F)(F)[C@H](O)[C@H]3O)c(O)cc2C)cc1` [Compound 47, (2S,3R,4R,6R)-2-(5-(4-ethoxybenzyl)-2-hydroxy-4-methylphenyl)-5,5-difluoro-6-(hydroxymethyl)tetrahydro-2H-pyran-3,4-diol], in assay [1], the inhibition at 0.3 µM was 47.9% and the pIC50 is 6.60. Further, in assay [2], the inhibition at 0.3 µM is 61.2% and the pIC50 was 8.74.

In the case of `COc1cc(Cl)c(Cc2ccc3c(c2)OCCO3)cc1[C@@H]1O[C@H](CO)C(F)(F)[C@H](O)[C@H]1O` [Compound 48, (2S,3R,4R,6R)-2-[4-chloro-5-(2,3-dihydro-1,4-benzodioxin-6-ylmethyl)-2-methoxy-phenyl]-5,5-difluoro-6-(hydroxymethyl)tetrahydropyran-3,4-diol], the figures for the inhibition at 0.3 µM in assay [1] and in assay [2] were 36.5% and 78.1%, respectively.

With `CCOc1ccc(Cc2cc([C@@H]3O[C@H](CO)C(F)(F)[C@H](O)[C@H]3O)c(OC)cc2C)cc1` [Compound 49], the “SGLT1 % Inh @ 0.3 μM” value in assay [1] was found to be 23.2%. Moreover, the “SGLT2 % Inh @ 0.3 μM” value in assay [2] is recorded as 79.2%.

As for `COc1cc(Cl)c(Cc2ccc([C@@H]3CCOC3)cc2)cc1[C@@H]1O[C@H](CO)C(F)(F)[C@H](O)[C@H]1O` [Compound 50], the “SGLT1 % Inh @ 0.3 μM” value in assay [1] amounted to 20.4%. In assay [2], the “SGLT2 % Inh @ 0.3 μM” value is 84.4%.

Regarding `N#CCOc1cc(Cl)c(Cc2cc3ccccc3s2)cc1[C@@H]1O[C@H](CO)C(F)(F)[C@H](O)[C@H]1O` [Compound 51], the “SGLT1 % Inh @ 0.3 μM” value in assay [1] was determined as 30.8%. In addition, the “SGLT2 % Inh @ 0.3 μM” value in assay [2] amounted to 82.0%.

For `Cc1cc(O)c([C@@H]2O[C@H](CO)C(F)(F)[C@H](O)[C@H]2O)cc1Cc1cc2cc(F)ccc2s1` [Compound 52], in assay [1], the inhibition at 0.3 µM came out at 41.3% and the pIC50 is 6.64. In assay [2], the inhibition at 0.3 µM worked out at 81.2% and the pIC50 was 7.72.

`COc1cc(C)c(Cc2cc3cc(F)ccc3s2)cc1[C@@H]1O[C@H](CO)C(F)(F)[C@H](O)[C@H]1O` [Compound 53]: in assay [1], the “SGLT1 % Inh @ 0.3 μM” value was 0.0%. In addition, in assay [2], the “SGLT2 % Inh @ 0.3 μM” value came to 87.1%.
